Source: patent US8163788B2, “Low-molecular inhibitors of cytohesin-family guanine nucleotide exchange factors” (Rheinische Friedrich-Wilhelms Universitat Bonn, priority 2004, dated 2012)

Key:
Assay type in all cases: cell-based
[1] = MTT assay (LC50) in HeLa-cells; conditions: human, after 24 hours
Procedure: The LC50 values were determined by an MTT assay according to a standard method.
The LC50 value describes the lethal concentration at which […] died within 24 hours after a one-time administration.

cytohesin-2 = assay: luciferase assay in HeLa-cells (serum response element activation, MAPK path via cytohesin-2); conditions: compounds 1 μM to 50 μM, read-out: IC50 (luciferase signal)
Procedure: The IC50 value was determined in comparison to the LC50 value in a luciferase assay in HeLa-cells, corresponding to the test conditions described in Theis, M. G. et al., Proc Natl Acad Sci USA, 101, 11221-26 (2004). The stimulation of receptor tyrosine kinases by means of growth factors contained in fetal calf serum activates the MAPK path via cytohesin-2 and results in an activation of the serum response element. This activation manifests itself in the quantity of luciferase produced in the cells.
Compounds (9), (10), (11), (12), (14) and (19) were each added in concentrations of 1 μM to 50 μM to 6.5×10^4 HeLa-cells.
The IC50 value was determined from the plotting of the concentration of the compound against the intensity of the luciferase signal.

human dendritic cells = assay: adhesion of dendritic cells to the substrate ICAM-1; conditions: 1 μM, 10 μM or 15 μM, 96 hours; stimulation with PMA or MEM-48; FIG. 4
Procedure: Dendritic cells were produced in vitro by means of differentiation factors (IL-4 and GM-CSF) from blood monocytes that were isolated from peripheral mononuclear cells (PBMC) by Ficoll density gradient centrifugation from the human blood of anonymous donors.
The blood was mixed at a ratio of 1:1 with PBS (KCl 0.2 g/l, KH2PO4 0.2 g/l, NaCl 8 g/l, Na2HPO4 1.15 g/l, PAA, Cölbe)/2 mM EDTA and layered onto half the volume of Ficoll. Centrifugation was carried out at 300×g, 30 minutes with no brake. After the centrifugation, a centered white band appeared which contained the PBMC. This was picked up with PBS/2 mM EDTA, filled up to 50 ml and subjected to several washing steps at 640×g, 500×g, 400×g, 300×g and 200×g. […]
The quantitative analysis of the cell migration was carried out in modified Boyden chambers consisting of a 24-hole plate into which the Transwell® filters with a 5 μm pore size had been placed. […] [98.6° F.] and 5% CO2 in the incubator and subsequently, the number of cells that had migrated into the lower chamber in the direction of the chemokine was determined. […]
Under corresponding conditions, the adhesion was determined after stimulation with phorbolester (PMA, 50 ng/ml, Sigma, Taufkirchen) or anti-beta-2 integrin antibodies MEM-48 (5 μg/ml, Vaclav Horeijsi, Czech Academy of Sciences Prague). […]

COc1nc(-c2ccc3c(c2)OCO3)n(-c2ccc(NC(=O)CSc3ccccc3)cc2)n1 [Compound 9]
CC50 at 24 h [1]: 141 ± 8 µM | IC50 (cytohesin-2): 12 ± 0.8 µM | inhibition of the adhesion of dendritic cells on the substrate ICAM-1 (human dendritic cells): concentration-dependent inhibition
